Results taken from ChEMBL document CHEMBL1649335, “Discovery of {1-[4-(2-{hexahydropyrrolo[3,4-c]pyrrol-2(1H)-yl}-1H-benzimidazol-1-yl)piperidin-1-yl]cyclooctyl}methanol, systemically potent novel non-peptide agonist of nociceptin/orphanin FQ receptor as analgesic for the treatment of neuropathic pain: design, synthesis, and structure-activity …” (Bioorg Med Chem, 2010).
The source made the active and inactive calls.

Tests used:
[1] = species: Rattus norvegicus; assay: Inhibition of rat sodium channel site 2 at 1 uM relative to control
[2] = Drug level Sprague-Dawley rat spinal cord at 10 mg/kg, sc after 0.5 hrs; type: ADME, organism-based; set-up: dose 10 mg/kg, route subcutaneous; conditions: read-out: Drug uptake
[3] = target: Substance-K receptor (Homo sapiens) (UniProt P21452); assay: Inhibition of human tachykinin NK2 receptor at 1 uM relative to control
[4] = target: Glutamate NMDA receptor (Rattus norvegicus) (UniProt P35439+Q00959+Q00960+Q00961+Q62645+Q8VHN2+Q9R1M7); assay: Inhibition of rat NMDA receptor at 1 uM relative to control; type: protein-complex assay
[5] = system: Rattus norvegicus; assay: Antiallodynic activity against von Frey hair mechanically stimulated neuropathic pain in Sprague-Dawley rat assessed as increase of response threshold per site at 170 nmol/site administered intrathecally after 1 hr relative to control; type: functional
[6] = system: Rattus norvegicus; assay: Antiallodynic activity against von Frey hair mechanically stimulated neuropathic pain in sc dosed Sprague-Dawley rat assessed as assessed as minimum effective dose to increase of response threshold after 2 hrs; type: functional
[7] = species: Rattus norvegicus; assay: Inhibition of rat glutamate receptor at 1 uM relative to control
[8] = system: Rattus norvegicus; assay: Toxicity in von Frey hair mechanically stimulated neuropathic pain Sprague-Dawley rat model assessed as respiratory depression at up to 170 nmol/site, icv; type: organism-based; conditions: in vivo, icv_or_intrathecal
[9] = system: Rattus norvegicus; assay: Antiallodynic activity against von Frey hair mechanically stimulated neuropathic pain in icv dosed Sprague-Dawley rat assessed as increase of response threshold per site after 20 mins; type: functional
[10] = target: Beta-2 adrenergic receptor (Homo sapiens) (UniProt P07550); assay: Inhibition of human beta2 adrenoceptor at 1 uM relative to control
[11] = system: Rattus norvegicus; assay: Antiallodynic activity against von Frey hair mechanically stimulated neuropathic pain in Sprague-Dawley rat assessed as effect on allodynia in contralateral paw at 1 to 30 mg/kg, sc after 1 hr; type: functional, organism-based
[12] = system: Rattus norvegicus; assay: Antiallodynic activity against von Frey hair mechanically stimulated neuropathic pain in intrathecally dosed Sprague-Dawley rat assessed as increase of response threshold per site after 1 hr; type: functional
[13] = system: Rattus norvegicus; assay: Antiallodynic activity against von Frey hair mechanically stimulated neuropathic pain in Sprague-Dawley rat assessed as effect on allodynia in contralateral paw at 5.5 to 170 nmol/site, icv after 20 mins; type: functional, organism-based
[14] = system: Rattus norvegicus; assay: Antiallodynic activity against von Frey hair mechanically stimulated neuropathic pain in Sprague-Dawley rat assessed as increase of response threshold per site at 170 nmol/site administered intrathecally after 20 mins relative to control; type: functional
[15] = target: Adrenergic receptor alpha-1 (Rattus norvegicus) (UniProt P15823+P23944+P43140); assay: Inhibition of rat alpha1 adrenoceptor at 1 uM relative to control
[16] = target: Voltage-gated inwardly rectifying potassium channel KCNH2 (Homo sapiens, UniProt Q12809); assay: Displacement of [3H]dofetilide from human ERG expressed in HEK293 cells after 60 mins by liquid scintillation counting; type: cell-based
[17] = system: Rattus norvegicus; assay: Antiallodynic activity against von Frey hair mechanically stimulated neuropathic pain in intrathecally dosed Sprague-Dawley rat assessed as assessed as minimum effective dose to increase of response threshold per site after 20 mins; type: functional
[18] = system: Rattus norvegicus; assay: Antiallodynic activity against von Frey hair mechanically stimulated neuropathic pain in Sprague-Dawley rat assessed as increase of response threshold per site at 55 nmol/site, icv after 20 mins relative to control; type: functional
[19] = system: Rattus norvegicus; assay: Antiallodynic activity against von Frey hair mechanically stimulated neuropathic pain in Sprague-Dawley rat assessed as assessed as minimum effective dose to increase of response threshold per site at 5.5 to 170 nmol/site, icv after 1 hr; type: functional, organism-based
[20] = target: Type-2 angiotensin II receptor (Homo sapiens) (UniProt P50052); assay: Inhibition of human angiotensin 2 AT2 receptor at 1 uM relative to control
[21] = system: Rattus norvegicus; assay: Antiallodynic activity against von Frey hair mechanically stimulated neuropathic pain in icv dosed Sprague-Dawley rat assessed as assessed as minimum effective dose to increase of response threshold per site after 20 mins; type: functional
[22] = system: Rattus norvegicus; assay: Antiallodynic activity against von Frey hair mechanically stimulated neuropathic pain in sc dosed Sprague-Dawley rat assessed as assessed as minimum effective dose to increase of response threshold after 1 hr; type: functional
[23] = species: Rattus norvegicus; assay: Stimulation of rat adenylate cyclase at 1 uM relative to basal activity
[24] = target: Cannabinoid receptor 1 (Homo sapiens) (UniProt P21554); assay: Inhibition of human cannabinoid CB1 receptor at 1 uM relative to control
[25] = species: Rattus norvegicus; assay: Inhibition of rat N-type calcium channel at 1 uM relative to control
[26] = system: Rattus norvegicus; assay: Antiallodynic activity against von Frey hair mechanically stimulated neuropathic pain in Sprague-Dawley rat assessed as increase of response threshold per site at 5.5 to 170 nmol/site, icv after 1 hr; type: functional, organism-based
[27] = target: 5-hydroxytryptamine receptor 2A (Homo sapiens) (UniProt P28223); assay: Inhibition of human 5-HT2A receptor at 1 uM relative to control
[28] = system: Rattus norvegicus; assay: Antiallodynic activity against von Frey hair mechanically stimulated neuropathic pain in sc dosed Sprague-Dawley rat assessed as increase of response threshold after 1 hr; type: functional
[29] = species: Rattus norvegicus; assay: Inhibition of rat GABA receptor at 1 uM relative to control
[30] = species: Rattus norvegicus; assay: Inhibition of rat 5-HT receptor at 1 uM relative to control
[31] = target: Small conductance calcium-activated potassium channel protein 1 (Rattus norvegicus) (UniProt P70606); assay: Inhibition of rat SKCa channel at 1 uM relative to control
[32] = system: Rattus norvegicus; assay: Toxicity in von Frey hair mechanically stimulated neuropathic pain Sprague-Dawley rat model assessed as sedation effect at up to 170 nmol/site, icv; type: organism-based; conditions: in vivo, icv_or_intrathecal
[33] = system: Rattus norvegicus; assay: Antiallodynic activity against von Frey hair mechanically stimulated neuropathic pain in Sprague-Dawley rat assessed as increase of response threshold at 1 to 30 mg/kg, sc; type: functional, organism-based; conditions: TDE = time-dependent effect
[34] = system: Rattus norvegicus; assay: Toxicity in von Frey hair mechanically stimulated neuropathic pain Sprague-Dawley rat model assessed as sedation effect at up to 30 mg/kg, sc; type: organism-based; set-up: dose 30 mg/kg, route subcutaneous; conditions: in vivo
[35] = species: Rattus norvegicus; assay: Inhibition of rat chloride channel at 1 uM relative to control
[36] = target: L-type calcium channel, dihydropyridine site (Rattus norvegicus, UniProt P22002+P27732+Q02485); assay: Inhibition of rat L-type calcium channel dihydropyridine site at 1 uM relative to control
[37] = system: Rattus norvegicus; assay: Antiallodynic activity against von Frey hair mechanically stimulated neuropathic pain in sc dosed Sprague-Dawley rat assessed as assessed as minimum effective dose to increase of response threshold after 4 hrs; type: functional, organism-based
[38] = Drug level Sprague-Dawley rat cerebrospinal fluid at 10 mg/kg, sc after 0.5 hrs; type: ADME, organism-based; set-up: dose 10 mg/kg, route subcutaneous; conditions: read-out: Drug uptake
[39] = target: Acetylcholinesterase (Homo sapiens) (UniProt P22303); assay: Inhibition of human acetylcholine esterase at 1 uM relative to control
[40] = system: Rattus norvegicus; assay: Antiallodynic activity against von Frey hair mechanically stimulated neuropathic pain in Sprague-Dawley rat assessed as effect on allodynia in contralateral paw at 1 to 30 mg/kg, sc after 4 hrs; type: functional, organism-based
[41] = system: Rattus norvegicus; assay: Toxicity in von Frey hair mechanically stimulated neuropathic pain Sprague-Dawley rat model assessed as respiratory depression at up to 30 mg/kg, sc; type: organism-based; set-up: dose 30 mg/kg, route subcutaneous; conditions: in vivo
[42] = target: Glucocorticoid receptor (Homo sapiens) (UniProt P04150); assay: Inhibition of human glucocorticoid receptor at 1 uM relative to control

Chain of Small conductance calcium-activated potassium channel protein 1 (Rattus norvegicus) (P70606 whole entry): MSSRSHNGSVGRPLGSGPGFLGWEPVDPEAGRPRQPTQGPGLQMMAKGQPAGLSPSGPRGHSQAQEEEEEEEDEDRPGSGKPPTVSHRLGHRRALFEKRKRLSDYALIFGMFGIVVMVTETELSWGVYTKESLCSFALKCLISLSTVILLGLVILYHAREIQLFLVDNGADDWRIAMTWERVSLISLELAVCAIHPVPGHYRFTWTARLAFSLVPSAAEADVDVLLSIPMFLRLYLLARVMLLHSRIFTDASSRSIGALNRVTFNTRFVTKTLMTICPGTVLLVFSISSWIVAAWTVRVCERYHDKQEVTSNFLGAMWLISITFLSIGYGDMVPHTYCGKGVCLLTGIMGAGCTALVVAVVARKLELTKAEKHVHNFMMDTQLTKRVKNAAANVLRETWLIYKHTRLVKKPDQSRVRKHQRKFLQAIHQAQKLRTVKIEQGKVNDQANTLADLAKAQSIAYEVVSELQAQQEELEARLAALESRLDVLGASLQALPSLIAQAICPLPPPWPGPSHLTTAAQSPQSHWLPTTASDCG
Chain of Cannabinoid receptor 1 (Homo sapiens) (P21554 whole entry): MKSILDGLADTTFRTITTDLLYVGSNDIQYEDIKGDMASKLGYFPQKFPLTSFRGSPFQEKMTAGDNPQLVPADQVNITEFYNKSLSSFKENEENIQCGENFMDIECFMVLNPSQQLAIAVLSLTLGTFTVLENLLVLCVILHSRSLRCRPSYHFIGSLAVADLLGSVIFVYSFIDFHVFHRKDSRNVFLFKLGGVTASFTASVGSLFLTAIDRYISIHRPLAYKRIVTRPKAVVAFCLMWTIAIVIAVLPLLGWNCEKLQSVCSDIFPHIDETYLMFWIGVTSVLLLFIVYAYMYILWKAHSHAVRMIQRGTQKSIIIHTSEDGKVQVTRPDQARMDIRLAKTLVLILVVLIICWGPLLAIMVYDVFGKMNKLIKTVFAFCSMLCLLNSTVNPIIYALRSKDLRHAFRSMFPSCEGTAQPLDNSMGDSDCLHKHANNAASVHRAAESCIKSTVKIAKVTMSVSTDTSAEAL
Chain of Voltage-gated inwardly rectifying potassium channel KCNH2 (Q12809 whole entry): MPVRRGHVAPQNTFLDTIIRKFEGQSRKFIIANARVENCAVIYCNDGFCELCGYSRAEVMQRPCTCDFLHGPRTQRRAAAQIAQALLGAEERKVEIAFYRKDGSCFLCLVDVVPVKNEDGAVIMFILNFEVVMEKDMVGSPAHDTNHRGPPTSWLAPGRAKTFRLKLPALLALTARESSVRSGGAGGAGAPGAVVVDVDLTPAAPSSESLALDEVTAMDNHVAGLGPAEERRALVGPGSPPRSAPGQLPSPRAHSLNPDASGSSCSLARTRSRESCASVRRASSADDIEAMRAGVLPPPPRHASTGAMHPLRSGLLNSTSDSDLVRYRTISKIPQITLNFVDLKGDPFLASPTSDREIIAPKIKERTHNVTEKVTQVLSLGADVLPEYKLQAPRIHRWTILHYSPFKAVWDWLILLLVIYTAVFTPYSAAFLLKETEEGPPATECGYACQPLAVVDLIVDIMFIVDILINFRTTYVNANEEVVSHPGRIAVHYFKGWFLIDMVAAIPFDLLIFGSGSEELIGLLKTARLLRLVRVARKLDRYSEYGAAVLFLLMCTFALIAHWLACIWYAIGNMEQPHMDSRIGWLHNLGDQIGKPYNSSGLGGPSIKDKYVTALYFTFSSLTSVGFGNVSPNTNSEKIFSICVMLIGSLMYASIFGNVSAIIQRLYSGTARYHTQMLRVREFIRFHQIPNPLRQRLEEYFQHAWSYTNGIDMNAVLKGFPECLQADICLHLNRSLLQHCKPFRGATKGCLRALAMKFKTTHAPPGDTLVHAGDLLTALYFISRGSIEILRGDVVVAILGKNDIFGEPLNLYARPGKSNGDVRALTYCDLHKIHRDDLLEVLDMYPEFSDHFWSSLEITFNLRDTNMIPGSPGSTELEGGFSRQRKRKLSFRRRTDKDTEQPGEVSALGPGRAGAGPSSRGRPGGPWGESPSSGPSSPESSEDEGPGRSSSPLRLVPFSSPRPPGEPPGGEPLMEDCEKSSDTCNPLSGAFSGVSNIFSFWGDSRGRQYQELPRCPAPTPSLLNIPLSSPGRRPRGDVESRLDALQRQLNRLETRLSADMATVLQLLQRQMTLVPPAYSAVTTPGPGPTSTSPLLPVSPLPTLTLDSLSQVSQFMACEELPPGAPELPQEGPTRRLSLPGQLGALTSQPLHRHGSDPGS
Chain of Substance-K receptor (Homo sapiens) (P21452 whole entry): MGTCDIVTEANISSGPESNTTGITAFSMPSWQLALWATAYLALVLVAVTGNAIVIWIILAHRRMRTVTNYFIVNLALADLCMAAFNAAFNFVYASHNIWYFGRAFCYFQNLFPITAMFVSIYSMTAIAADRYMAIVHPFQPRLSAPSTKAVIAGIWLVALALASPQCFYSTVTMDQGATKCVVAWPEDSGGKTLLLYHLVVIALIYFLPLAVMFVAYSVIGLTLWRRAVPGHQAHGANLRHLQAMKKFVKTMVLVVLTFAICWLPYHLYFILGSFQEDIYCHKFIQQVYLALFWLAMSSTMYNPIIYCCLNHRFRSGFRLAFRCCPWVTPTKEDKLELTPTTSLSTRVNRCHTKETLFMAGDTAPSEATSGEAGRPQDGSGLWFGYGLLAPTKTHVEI
Chain of 5-hydroxytryptamine receptor 2A (Homo sapiens) (P28223 whole entry): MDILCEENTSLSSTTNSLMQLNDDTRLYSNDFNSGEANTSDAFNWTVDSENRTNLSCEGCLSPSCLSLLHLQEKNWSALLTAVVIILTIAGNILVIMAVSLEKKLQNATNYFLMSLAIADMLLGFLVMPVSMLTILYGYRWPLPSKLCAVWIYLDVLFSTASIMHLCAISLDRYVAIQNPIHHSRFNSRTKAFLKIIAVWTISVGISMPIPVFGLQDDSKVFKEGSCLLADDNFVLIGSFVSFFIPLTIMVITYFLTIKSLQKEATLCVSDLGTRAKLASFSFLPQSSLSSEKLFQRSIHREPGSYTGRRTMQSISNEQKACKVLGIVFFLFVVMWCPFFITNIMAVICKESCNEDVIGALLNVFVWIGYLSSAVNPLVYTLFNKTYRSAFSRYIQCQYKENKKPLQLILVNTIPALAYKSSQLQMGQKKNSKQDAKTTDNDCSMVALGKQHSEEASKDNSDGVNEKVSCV
Chain of Acetylcholinesterase (Homo sapiens) (P22303 whole entry): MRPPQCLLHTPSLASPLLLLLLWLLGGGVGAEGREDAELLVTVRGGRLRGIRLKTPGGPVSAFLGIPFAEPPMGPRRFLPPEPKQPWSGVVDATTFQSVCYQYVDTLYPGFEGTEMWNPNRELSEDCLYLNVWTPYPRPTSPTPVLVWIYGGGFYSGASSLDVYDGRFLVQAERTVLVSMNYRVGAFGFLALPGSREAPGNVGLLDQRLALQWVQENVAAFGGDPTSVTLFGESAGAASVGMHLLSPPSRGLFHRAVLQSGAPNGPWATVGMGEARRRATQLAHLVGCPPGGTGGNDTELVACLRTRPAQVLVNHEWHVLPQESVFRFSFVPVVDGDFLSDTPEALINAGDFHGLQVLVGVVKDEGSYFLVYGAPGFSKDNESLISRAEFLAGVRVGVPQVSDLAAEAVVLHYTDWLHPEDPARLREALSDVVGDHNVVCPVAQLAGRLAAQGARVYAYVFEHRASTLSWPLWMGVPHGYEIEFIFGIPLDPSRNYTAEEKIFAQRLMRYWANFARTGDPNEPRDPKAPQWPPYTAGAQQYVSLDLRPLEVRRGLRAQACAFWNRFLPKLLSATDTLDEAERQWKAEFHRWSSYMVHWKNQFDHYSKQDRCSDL
Chain of Beta-2 adrenergic receptor (Homo sapiens) (P07550 whole entry, looked up): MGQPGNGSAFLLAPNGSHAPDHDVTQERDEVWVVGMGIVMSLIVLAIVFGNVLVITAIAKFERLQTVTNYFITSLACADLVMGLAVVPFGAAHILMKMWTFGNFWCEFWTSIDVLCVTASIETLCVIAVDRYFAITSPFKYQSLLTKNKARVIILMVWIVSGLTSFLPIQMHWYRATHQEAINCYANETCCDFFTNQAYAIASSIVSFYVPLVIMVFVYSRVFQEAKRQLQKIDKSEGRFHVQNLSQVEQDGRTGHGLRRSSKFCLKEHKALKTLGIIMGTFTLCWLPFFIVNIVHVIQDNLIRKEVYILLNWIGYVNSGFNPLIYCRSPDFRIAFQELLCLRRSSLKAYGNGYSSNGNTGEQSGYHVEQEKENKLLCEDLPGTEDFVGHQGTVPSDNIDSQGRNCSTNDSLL
Chain of Type-2 angiotensin II receptor (Homo sapiens) (P50052 whole entry): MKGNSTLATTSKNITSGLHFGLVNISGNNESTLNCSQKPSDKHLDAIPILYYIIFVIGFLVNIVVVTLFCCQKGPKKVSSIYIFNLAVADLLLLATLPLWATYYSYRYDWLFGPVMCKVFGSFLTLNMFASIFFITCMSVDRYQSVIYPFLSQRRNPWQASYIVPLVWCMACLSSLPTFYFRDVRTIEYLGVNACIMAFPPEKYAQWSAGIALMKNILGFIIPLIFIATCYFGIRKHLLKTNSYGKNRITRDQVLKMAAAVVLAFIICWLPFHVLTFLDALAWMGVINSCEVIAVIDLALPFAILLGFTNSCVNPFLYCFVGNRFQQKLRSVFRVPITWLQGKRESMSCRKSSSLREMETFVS

For OCC1(N2CCC(n3c(N4CC5CNCC5C4)nc4ccccc43)CC2)CCCCCCC1 (stereo not drawn), the inhibition [1] was less than 10%, the concentration at 0.5 h [2] was 48 ng/mL and the inhibition [3] was less than 10%. For the same compound, the inhibition [4] was less than 10%, the Activity [5] was 45.5% and the MED [6] was 30 mg/kg. The inhibition [7] was less than 10%, the Activity [8] was “Non-toxic” and the ED50 [9] was 170 nmol. For the same compound, the inhibition [10] was 53%, the Activity [11] was “inactive” and the Activity [12] was “Dose-dependent effect”. For the same compound, the ED50 [12] was greater than 170 nmol, the Activity [13] was “inactive” and the Activity [14] was 59.3%. It also gave an inhibition [15] of 16%, a Ki [16] of 3.7 µM and an MED [17] of 55 nmol. For the same compound, the Activity [18] was 23.7%, the MED [19] was “inactive” and the inhibition [20] was less than 10%. It also gave an MED [21] of 55 nmol, an MED [22] of 10 mg/kg and an inhibition [23] of less than 10%. The inhibition [24] was 18%, the inhibition [25] was less than 10% and the ED50 [26] was “inactive”. It also gave an inhibition [27] of less than 10%, an ED50 [28] of 10.8 mg/kg and an inhibition [29] of less than 10%. The inhibition [30] was less than 10%, the inhibition [31] was less than 10% and the Activity [32] was “Non-toxic”. The Activity [33] was “tde”, the Activity [34] was “Non-toxic” and the inhibition [35] was less than 10%. For the same compound, the inhibition at 1 µM [36] was less than 10%, the MED [37] was “inactive” and the concentration at 0.5 h [38] was 11 ng/mL. For the same compound, the inhibition [39] was less than 10%, the Activity [40] was “inactive” and the Activity [41] was “Non-toxic”. The inhibition [42] was less than 10%.
